In patent US20250186403A1 (ARIZONA BOARD OF REGENTS ON BEHALF OF THE UNIVERSITY OF …, priority 2022, published 2025):

Key:
[1] = tested on: Cne-H99; assay: Efficacy in cryptococcal pulmonary infection mouse model; type: in vivo, Cryptococcus neoformans; BALB/c mice
Method: Blood samples were collected at 0, 0.5, 1, 2, 4, 8, 12, 16, 24, and 36 h after oral gavage. […] Other PK parameters are in Table 4. The values represent means±SD. […] On day 0, mice were infected with H99 (10^7 cells/mice) intranasally or mock-infected with PBS. Mice were euthanized on day 5, and lungs were dissected out, homogenized in RPMI-1640-MOPS media, and plated onto Sabouraud dextrose agar plates containing antibiotics. Plates were incubated at 30° C. for 72 h, and colonies were counted. […] VC: Vehicle control, (90% corn oil, 10% DMSO). Dpi: Days post-infection. CFU: Colony-forming units.
Efficacy studies in the mouse: The in vivo studies were done in a mouse model with the approval of IACUC, Wadsworth Center, Albany, NY. Male and female BALB/c mice 4-5-week-old were purchased from Jackson laboratory and quarantined for a week before shifting to the experimental room. The mice were grouped randomly with a male: female ratio 1:1, ears were punched as identification code. The formulation of the compound was done by dissolving the CMN in absolute DMSO and diluted in corn oil. The formulations were done daily, just before the dosing. […] Following this, the mice were anesthetized and infected with Cne-H99 cells ([…] in 30 μl PBS/mouse) intranasally. […] Mice were weighed every day, and visual observations were made for activity, movement, coat condition, etc. Food and water were ad libitum. On day 5, the mice were anesthetized and euthanized. Lung tissues were dissected out, weighed, and homogenized in 1 ml RPMI-MOPS media using a glass homogenizer. After log dilution of the tissue suspension in RPMI-MOPS, 100 μl from each dilution was plated onto SD agar plates with antibiotics (20 μg/ml penicillin, 40 μg/ml streptomycin, […], 25 μg/ml chloramphenicol). The plates were incubated at 30° C. for 3 days before counting the colonies. The counts were normalized with the weight of the lung tissue taken during the necropsy. The fungal load in the groups was compared with Student's t-test, and p<0.05 was considered as significant.

[2] = tested on: Cne cells; assay: Checkerboard assay with known antifungals; type: cell-based, Cryptococcus neoformans
Method: After adding Cne cells, the plates were incubated for 48 h. Well contents were mixed by pipette, and absorbance was read at 630 nm. […] Based on the FIC, the combinatorial effects are decided as in Table 2.

[3] = tested on: Cne-WT in RAW 264.7 macrophages; assay: Phagocytosis assay (macrophage intracellular infection model); type: cell-based, Cryptococcus neoformans; conditions: for reduction of intracellular Cne in macrophages: 24 h, macrophage lysate
Method: FIGS. 1B, 1C, and 1D show phagocytosis assays. RAW 264.7 cells were seeded in 24 well plates and differentiated into macrophages using PMA. Media was replaced with fresh media containing opsonized Cne-WT and incubated at 37° C. for 8 h. Cells were washed 3 times with PBS to remove non-phagocytosed fungal cells. […] Culture supernatants were diluted and plated onto SD agar plates for tittering the fungal load. The cells were washed thrice with PBS and homogenized with a small homogenizer, diluted, and plated on SD agar plates. Colonies were counted after 72 h. […] Treatment groups were compared with unpaired Student's t-test. p<0.05 is considered significant. […] Insert: enlarged view of the phagocytosed Cne cells. The cells were permeabilized with methanol and stained with Giemsa stain. CFU: […] Cne: Cryptococcus neoformans.
Phagocytosis assay: Mouse monocyte/macrophage-like cells RAW 264.7 were seeded in the six-well plate in DMEM media with 10% FBS and incubated at 37° C. in a CO2 incubator. Once it reached 70% confluently, the cells were differentiated into macrophages by replacing the culture supernatant with fresh media containing 100 nM phorbol 12-myristate 13-acetate (PMA) and incubated at 37° C. for 48 h in a CO2 incubator. Differentiated cells in six-well plates were washed once with PBS to remove loosely bound cells. Cne-WT cells were grown overnight in the SD broth media and washed thrice in 0.1 mM PBS, opsonized with 20% human complement serum (Sigma, USA) and 20 μg glucuronoxylomannan specific antibody (clone 18B7, EMD Millipore, USA) by incubating at 37° C. for 30 min with rotating end to end. The Cne cells were washed thrice with PBS to remove unbound antibodies and serum components. The opsonized Cne cells were added to the macrophages at 1:10 ratio and incubated at 37° C. for 10 h. […] The fungal load in the media and the cells was estimated. For tittering, 100 μl of the culture supernatant was plated onto the SD-agar plates with tenfold dilutions. The cells were washed with PBS, scraped, and harvested in PBS, homogenized with a disposable homogenizer. A volume of 30 μl was mixed with 60 μl SD media and plated onto the SD agar plates. The plates were incubated at 30° C. for 72 h, and colonies were counted.

[4] = Cryptococcus neoformans, RAW264.7, 24 h, read-out: inhibition of released Cne

CNc1ccc2oc(C[C@H]3O[C@@]4(CC[C@H]3C)O[C@H]([C@H](C)C(=O)c3ccc[nH]3)[C@H](C)C[C@H]4C)nc2c1C(=O)O [CMN, calcimycin]
reduction in fungal burden vs vehicle control ([1]; CMN 20 mg/Kg BW orally once daily for 5 days, day 5): 3 fold | fungal burden in the lungs ([1]; CMN 20 mg/Kg BW orally once daily for 5 days, day 5, vehicle 1.8×10^8): 6.3×10^7 CFU/g lung tissue | reduction in lung-fungal load ([1]; CMN 20 mg/kg body weight): 60% | MIC ([2]; Cryptococcus neoformans, 48 h, read-out: MIC Alone): 1.31 µg/mL | MIC Comb ([2]; combination CMN + 5-Fluorocytosine, well D2): 0.65 µg/mL | MIC Comb ([2]; combination CMN + Amphotericin B, well E6): 0.33 µg/mL | MIC Comb ([2]; combination CMN + Itraconazole, well E4): 0.33 µg/mL | MIC Comb ([2]; combination CMN + Voriconazole, well D4): 0.65 µg/mL | reduction of intracellular Cne in macrophages ([3]; 0.3 μg/ml CMN): 23% | reduction of intracellular Cne in macrophages ([3]; 0.6 μg/ml CMN): 50% | reduction of intracellular Cne in macrophages ([3]; CMN): 72% | inhibition at 0.3 µg/mL [3, 4]: 41% | inhibition at 0.6 µg/mL [3, 4]: 59% | inhibition at 1.3 µg/mL [3, 4]: 69% | released Cne (significance) ([3]; at 0.3 μg/ml): significantly reduced | growth of intracellular Cne in macrophages (significance) ([3]; at 0.6 μg/ml): significantly reduced
